Data: patent US20200024246A1, “POGOSTONE DERIVATIVES AND METHODS OF USING THE SAME” (Hamyard Associates LLC, priority 2018, published 2020)
“Also recorded” adds a separate entry of the source.

Legend:
[1] = tested on: Dandelion (Taraxacum officinale); assay: Soil drench herbicidal test, dandelion; type: in vivo; settings: 40 mL of 0.5% soil drench, FIG. 12; words
Method: (§1) Dandelion (Taraxacum officinale) seeds were obtained from the Department of Agronomy at Iowa State University. Individual seeds were sown for each pot (6″ wide×4.5″ deep) with approximately 800 mL of soil for each plan. Only plants that germinated were used for the study. Plants were treated 1-2 weeks post emergence. Plants were watered every 2-3 days as needed. Giant foxtail (Setaria faberi) seeds were obtained from the Department of Agronomy at Iowa State University. Three seeds were sown for each pot (6″ wide×4.5″ deep) with approximately 800 mL of soil for each plan. Only plants that germinated were used for the study. Plants were treated 1-2 weeks post emergence. Plants were watered every 2-3 days as needed.
Formulations of the various active ingredients were created using the disclosed pogostone derivatives and Triton-X 100 to aid in the solvation of the active ingredient. Formulations consisted of 0.5% active ingredient by weight. […] 40 mL of formulation ([…] active ingredient) was applied to each pot containing approximately 3-5 plants per pot at 2-3 weeks after emergence. Observations were performed 3 days and 2 weeks after soil drench to determine the effects of the treatments on the various types and stages of plants. […]

[2] = tested on: Western corn rootworm larvae; assay: Seed treatment testing: rootworm survival (FIG. 2A); type: in vivo; settings: seeds coated with compound; 1 week after introduction of larvae
Method: Corn seeds used were a non-transgenic type strain of corn to prevent confounding results. Germination typically occurred between 2-4 days after moistening.
Seed coating was accomplished by placing 20 g of corn seeds or soybeans into a container with approximately 1 mL of a 1:5 Elmer's glue:water solution with a small amount of Triton-X100™ (present 100 μL/5 mL). For solid compounds, 0.25 g of compound was subsequently introduced into the container. This mixture of seeds, Elmer's Glue/water/Triton-X 100™ solution, and active compound was mixed thoroughly until seeds were coated with the active ingredient.
For each treatment, 0.25 g of liquid compound was dissolved in 5 mL of hexane. 0.25 g of Hi-Sil 233 silica gel was introduced into this mixture of hexane and active ingredient. The solvent was blown-off using a rotary evaporator, allowing for the compound to adsorb to the silica gel. This 0.5 g of silica gel:active ingredient was then used as the solid material used for coating the seeds. The seeds were then coated with the same method used for solid compound.
Three corn seeds coated in pogostone derivative treatments were germinated in small, 2-oz. […] Germination of seedlings was also recorded at the end of the assay by counting the total number of seeds that produced roots out of the 3 seeds in each container/replicate and recorded as total percentage germination. […]

house flies [3] = assay: Spray-cup testing, house flies (FIG. 3a); type: in vivo, house fly; settings: Formula 13 2.5% w/v in water vs thymol 2.5% or 10% w/v
Method: (§2) 10 adults of various arthropod species used for this characterization were placed into 8 oz. ice cream cups with tulle placed over the top to prevent the escape of arthropods from the container. Test formulations were added to spray bottles ([…]™) and applied at the same distance and spray number to eliminate variation between manufacturer spray bottles. For all experiments, spray bottles were set to mist in order to prevent excess formulation from accumulating in the cups. […] Mortality was recorded at 1 min, 5 min, 10 min, 15 min, 30 min, 4 hours, and 8 hours for each replicate. A minimum of 3 replicates of 10 arthropods/cup/replicate were performed for each formulation. Data was modeled using a logarithmic regression to show the speed-to-kill of each formulation and highlight differences among treatment groups. Different spray amounts were used for each arthropod, depending on susceptibility, e.g.:
House flies=8 sprays, 3 in […]

house flies [4] = assay: Topical application on house flies; settings: House Fly Toxicity; topical
[5] = tested on: adult female Aedes aegypti mosquitoes; assay: Formula 13 after pre-treatment with detoxification enzyme inhibitors (FIG. 10); type: in vivo
Method: Combinations of 2000 μg/mL Formula 13 and various detoxification enzyme inhibitors were applied to adult female mosquitoes in a volume of 0.2 μL to identify which detoxification pathway was most responsible for clearance of bioactive pogostone from the insect. A dose of 0.2 uL of either 1000 μg/mL of S,S,S-tributyl phosphorotrithioate (DEF) or 5000 μg/mL piperonyl butoxide (PBO) or 5000 μg/mL diethyl maleate (DEM) was applied 4 hours before a dose of 0.2 uL 2000 μg/mL of Formula 13 was applied to adult Aedes aegypti. […] The concentrations of inhibitors were chosen due to their inability to cause toxicity on their own at this application rate. The concentration of Formula 13 was chosen as the approximate LD25 of this compound against adult female Aedes aegypti mosquitoes. Combinations that caused statistically higher levels of mortality than pyrone 7 applied alone were considered informative. The goal of this exploration was to determine which processes might be most valuable in the detoxification of these derivatives.

[6] = tested on: 3-4 instar Aedes aegypti larvae; assay: Mosquito larvicide bioassay; type: in vivo
Method: Mosquito larvicide bioassays were performed by introducing various concentrations of test compounds (pyrone derivatives and rotenone) into acetone at various concentrations. 200 uL of these solutions were added to individual cups containing 10, 3-4 instar Aedes aegypti larvae and 25 mL of DI water. 2 mg of Tetramin™ was provided to each cup as a food source. […] Ataxia was used as the indicator of larval mortality. At least 5 concentrations were used which caused between 10 and 90% mortality. LC50 values were calculated using a PROC PROBIT model in SAS 9.4.

maize weevils = assay: Spray-cup testing, maize weevils (FIG. 3c); type: in vivo, maize weevil; settings: Formula 13 2.5% w/v in water vs thymol 2.5% or 10% w/v
Method: as §2
Maize weevils=8 sprays, 3 in […]

[7] = tested on: Giant foxtail (Setaria faberi); assay: Soil drench herbicidal test, foxtail; type: in vivo; settings: for % mortality: Foxtail, Rep 1 and 2
Method: as §1
Formulations of the various active ingredients were created using the disclosed pogostone derivatives and Triton-X 100 to aid in the solvation of the active ingredient. Formulations consisted of 0.5% active ingredient by weight. […] 40 mL of formulation (either […] active ingredient) was applied to each pot containing approximately 3-5 plants per pot at 2-3 weeks after emergence. Observations were performed 3 days and 2 weeks after soil drench to determine the effects of the treatments on the various types and stages of plants. Phytotoxicity is reported as percentage of total plants treated compared to a control treatment that was exposed to a similar formulation (without the active monoterpenoid derivatives). Technical grade 2,4-dichlorophenoxyacetic acid (2,4-D) was used as the commercial comparison for phytotoxicity. For its solvation, potassium hydroxide was introduced at a 1:1 molar ratio with 2,4-D to ensure this molecule would adequately dissolve in water.

Structure (SMILES): CC(C)CCC(=O)c1c(O)c2ccccc2oc1=O [Formula 13]
- phytotoxicity in dandelion [1]: little phytotoxicity
- western corn rootworm mortality [2]: significant western corn rootworm mortality
- efficacy (mortality) compared with thymol (house flies [3]): outperformed thymol at all time points; also recorded: surpassed the efficacy of thymol at both an equal or higher concentration
- LD50 (ug/g fly) (house flies [4]): 5950 ug/g fly
- toxicity of Formula 13 after DEF (inhibition of esterases) ([5]; 1000 μg/mL DEF 4 hours before 2000 μg/mL Formula 13, 0.2 uL each): significantly increased the toxicity of Formula 13
- toxicity of Formula 13 after DEM (decreasing glutathione S-transferase activity) ([5]; 5000 μg/mL DEM 4 hours before 2000 μg/mL Formula 13, 0.2 uL each): second-most important enzyme system
- toxicity of Formula 13 after PBO (inhibition of monooxygenases) ([5]; 5000 μg/mL PBO 4 hours before 2000 μg/mL Formula 13, 0.2 uL each): most significant for increasing the toxicity of Formula 13
- approximate LD25 (concentration applied) ([5]; 0.2 uL applied topically to adult female Aedes aegypti): ~2000 µg/mL
- LC50 ([6]; Aedes aegypti, larval mortality at 24 hours, in 25 mL DI water, read-out: LC50): 1.34 µg/mL
- larvicidal properties compared with natural pogostone or rotenone ([6]; words): possessed better larvicidal properties than natural pogostone; also recorded: possessed better larvicidal properties than rotenone; also recorded: performed as well as the rotenone
- efficacy (mortality) compared with thymol (maize weevils): outperformed thymol at all time points; also recorded: performed better than thymol applied at an equal concentration and as well as thymol applied in a 10% concentration
- phytotoxicity in foxtail ([7]; 40 mL of 0.5% soil drench, FIG. 12, words): significant phytotoxicity
- % mortality ([7]; 2 weeks after soil drench - 40 mL of 0.5% solution): 100%
- % mortality ([7]; 3 days after soil drench - 40 mL of 0.5% solution): 50%
